Assay results: PMC8986850, “Development and exploration of novel substituted thiosemicarbazones as inhibitors of aldose reductase via in vitro analysis and computational study” (Scientific Reports, 2022)

Molecular target: T1, ALR2 (Bos taurus, UniProt P16116)
T1 construct: from tissue; host or cells: calf eye lenses
Experiment: ALR2 enzyme inhibition assay (enzyme extracted from calf lenses)
Type: biochemical, bovine
Protocol: Compounds 3a-o were tested against ALR2 to evaluate their inhibitory potential against aldose reductase whereas selectivity was determined via performing ALR1 inhibition assay. For the enzyme inhibition assay, ALR2 and ALR1 were extracted from bovine sources (ALR2 from eyes and ALR1 from kidneys). Moreover, inhibitions studies were also carried out on the expressed ALR2 (human AKR1B1) and inhibition data for ALR2- bovine source and expressed enzyme was compared and analyzed. The protocols for enzyme extraction and expression in the bacterial system are included in the section of “Supporting information”. […] For the purpose of comparison and validation of enzyme inhibition data, these compounds were tested against human AKR1B1 (hAKR1B1) expressed in E. coli BL21 (DE3).
For the determination of enzyme activity of ALR1 and ALR2, 100 µL of reaction mixture was composed of 20 µL of buffer (100 mM sodium phosphate, pH 6.2), 30 µL of enzyme extract, 20 µL of substrate (10 mM), 20 µL of cofactor (0.1 mM of NADPH) and 10 µL of test compound (1 mM)[6],[21]. The reaction mixture without cofactor was incubated at 32°C for 10 min, then the enzymatic reaction was initiated with the addition of NADPH and monitored for 5 minutes. Similar protocols were followed for ALR1 and ALR2, however the substrate was different for each enzyme, with sodium-D-glucoronate and DL-glyceraldehyde used as the substrates for the ALR1 and ALR2 assays, respectively. […] In addition, similar protocols were adopted for human AKR1B1 that was expressed in E. coli BL21 (DE3), though the determined protein concentration was 12 µg/mL for the expressed enzyme. Detailed protocols for the preparation of ALR1, ALR2 and expressed human AKR1B1 can be found in the supporting information.
The newly synthesized N-substitute thiosemicarbazones (3a-o) were dissolved in 100% DMSO and diluted with deionized water, keeping the DMSO concentration equal to 0.1% in the assay.
The extraction of ALR2 was carried out from calf lenses via adopting method described in
in (Hayman and Kinoshita 1965) with little modification. The lenses were obtained from slaughterhouse immediately after calf’s slaughtering and stored at -20^◦C until further use. These lense (150-170g) were subjected to homogenization with about three times volume of cold distilled water and then centrifugation was carried out for the homogenate at 10,000 x g for 14 minutes for removal of insoluble lipids particles. Precipitates were discarded and supernatant layer was subjected to 40% saturation of ammonium sulphate and again centrifugation was performed with same parameters for 14 minutes and again precipitates were discarded. […] In the last step, the supernatant was subjected to 75% of saturation with ammonium sulphate to obtain ALR2. Now, the precipitates were collected instead supernatant because precipitated protein was the expected desired ALR2. The precipitated enzyme (ALR2) was redissolved in 50mM solution of sodium chloride and dialyzed for 24 hours against 50mM solution (3.5L) of NaCl. The volume was recorded before and after dialysis, then dialyzed material was treated with liquid nitrogen. The extracted ALR2 was stored in 1mL Eppendorf tube in deep freezer at -80 ^◦C till further enzymatic studies.

inhibition at 100 µM (bovine lens ALR2, 100 µM inhibitor, read-out: I (%, 100 µM) (ALR2) (converted)): 85.1% | IC50 (bovine lens ALR2, substrate DL-glyceraldehyde, mean ± SEM of three measurements): 1180 ± 3.4 nM
Compound: CC(C)(C)c1cc(C=NNC(=S)Nc2ccccc2F)c(O)c(C(C)(C)C)c1 [Compound 3m, 2-(3,5-di-tert-butyl-2-hydroxybenzylidene)-N-(2-fluorophenyl)hydrazine carbothioamide]
